Experimental data published in ChEMBL document CHEMBL3507680, “University of Dundee, Gates Library screen for HepG2 cell viability”.

test: Human HepG2 cell viability assay in 384 well format; assay type: toxicity, cell-based; set-up: dose 125 nL, time 70.5 hour; cytotoxicity at 70.5 h: concentration not given beside the values; conditions: HepG2 cells, read-out: Inhibition

Q: Which cytotoxicity at 70.5 h does the source give for `CNC(=O)Cc1ccc(NC(=O)NC(C)C(C)C)cc1` (stereo not drawn) here?
A: -15.4%

Q: For `NCC1CN(C(=O)Cn2ncc(N3CCCCC3)cc2=O)CCO1` (stereo not drawn), which cytotoxicity at 70.5 h is on record?
A: -2.61%

Q: With `CC(=O)N1CCC2(CCCN2Cc2cnn(C)c2)CC1` as the compound, how does the cytotoxicity at 70.5 h read?
A: -10%

Q: With `Cc1ccc(S(=O)(=O)N2CCc3ccc(F)cc32)cc1C(=O)O` as the compound, how does the cytotoxicity at 70.5 h read?
A: -6.54%

Q: For `CN1CCCN(C(=O)NCc2ccccc2Cn2cncn2)CC1`, which cytotoxicity at 70.5 h is on record?
A: -2.94%

Q: For `CC(C)Oc1cccc(F)c1C(C(=O)O)N1CCCN(C)CC1` (stereo not drawn), which cytotoxicity at 70.5 h is on record?
A: 26.8%

Q: For `Cc1ccc(C2CSCCN2CC(=O)N2CCOCC2)cc1` (stereo not drawn), which cytotoxicity at 70.5 h is on record?
A: -5.8%

Q: For `Cc1noc(CCCC(=O)NC(C)c2nnc3n2CCCCC3)n1` (stereo not drawn), which cytotoxicity at 70.5 h is on record?
A: -1.92%

Q: With `CCn1cc(NS(=O)(=O)c2ccc(Br)s2)c(C(N)=O)n1` as the compound, how does the cytotoxicity at 70.5 h read?
A: 21.8%

Q: With `COc1cc2nc(C)n(CC(=O)NCCC(C)C)c(=O)c2cc1OC` as the compound, how does the cytotoxicity at 70.5 h read?
A: -16.6%

Q: Which cytotoxicity at 70.5 h does the source give for `CC(=O)N[C@@H]1CN(C(=O)c2cccc(C)c2)C[C@H]1O` here?
A: -8.6%

Q: For `Cc1ncoc1C(=O)N1CCc2[nH]nc(-c3ccc4c(c3)OCO4)c2C1`, which cytotoxicity at 70.5 h is on record?
A: 16.8%

Q: For `Cn1ncc(C(=O)OCC2CC(=O)N(c3ccccc3)C2)c1C(F)F` (stereo not drawn), which cytotoxicity at 70.5 h is on record?
A: -9.29%

Q: Which cytotoxicity at 70.5 h does the source give for `Cc1c(Cl)cccc1N1CC(c2nnc(N)s2)CC1=O` (stereo not drawn) here?
A: 5.68%

Q: For `O=C(C1CC(F)(F)C1)N1C[C@@H]2CN(Cc3ccoc3)CCO[C@@H]2C1`, which cytotoxicity at 70.5 h is on record?
A: -3.45%

Q: With `OC1(CNCCN2CCCc3ccccc32)CCNC1` (stereo not drawn) as the compound, how does the cytotoxicity at 70.5 h read?
A: -11.6%

Q: For `CCCSCC(=O)N1CCN(c2ccc(OC)cc2)CC1C` (stereo not drawn), which cytotoxicity at 70.5 h is on record?
A: -2.57%

Q: With `Cc1nc(-c2ccccc2)cc2nn(CC(N)=O)c(=O)n12` as the compound, how does the cytotoxicity at 70.5 h read?
A: -2.53%

Q: For `CCn1cc(CN2CCN(C(=O)c3cc(Br)cs3)CC2)c(C)n1`, which cytotoxicity at 70.5 h is on record?
A: 22.9%

Q: Which cytotoxicity at 70.5 h does the source give for `CC(C)c1ccc(OCCC(=O)NCCC(=O)N(C)C)cc1` here?
A: -8.34%

Q: For `O=c1cc(Cn2ccnc2)nc2n1CCCN(Cc1ccc(F)cc1)C2`, which cytotoxicity at 70.5 h is on record?
A: -14.3%

Q: Which cytotoxicity at 70.5 h does the source give for `Cc1cc(CN2CCN(C(=O)CCCc3nc(C(C)C)no3)CC2)on1` here?
A: -8.77%

Q: For `Cc1n[nH]c(C)c1CCC(=O)N1CCC(O)(CN2CCN(C)CC2)C1` (stereo not drawn), which cytotoxicity at 70.5 h is on record?
A: -6.92%

Q: Which cytotoxicity at 70.5 h does the source give for `Cc1c(-c2ccccc2)ncn1CCCNc1cccnc1` here?
A: -4.84%

Q: Which cytotoxicity at 70.5 h does the source give for `CC(C)Oc1ncccc1CNC(=O)N1CCCC1c1ccsc1` (stereo not drawn) here?
A: -0.144%

Q: Which cytotoxicity at 70.5 h does the source give for `Cc1ccc(NCc2cncc3c2CCN(Cc2ccccn2)C3)nn1` here?
A: -13.4%

Q: With `Cc1cnc(C(=O)N2C[C@H]3CCCC(OCc4cccnc4)[C@H]3C2)cn1` (stereo partly drawn) as the compound, how does the cytotoxicity at 70.5 h read?
A: -3.45%

Q: Which cytotoxicity at 70.5 h does the source give for `Cc1oc(C)c(C(=O)N2CCCN(c3nccs3)CC2)c1C` here?
A: -5.97%

Q: For `CCc1nccn1CCCn1ccnc1-c1[nH]cnc1C`, which cytotoxicity at 70.5 h is on record?
A: 5.17%

Q: Which cytotoxicity at 70.5 h does the source give for `CS(=O)(=O)NCc1nnc2n1CCN(Cc1ccccn1)C2` here?
A: -9%

Q: For `CC(C)N(C)Cc1cnc2n1CCN(C(=O)Cc1ccsc1)C2`, which cytotoxicity at 70.5 h is on record?
A: 3.66%

Q: With `Cc1ccc(S(N)(=O)=O)cc1C(=O)NC1CCCC1` as the compound, how does the cytotoxicity at 70.5 h read?
A: -1.13%

Q: For `CCCOc1ccc(NC(=O)NCCC(=O)N(C)C)cc1Cl`, which cytotoxicity at 70.5 h is on record?
A: -4.39%

Q: With `Cc1nc(CN2CCCC(N(C)CC3(O)CCCCC3)C2)no1` (stereo not drawn) as the compound, how does the cytotoxicity at 70.5 h read?
A: 0.0355%

Q: Which cytotoxicity at 70.5 h does the source give for `c1cc(CN2C[C@@H]3OCCN(CC4CCCO4)[C@@H]3C2)co1` (stereo partly drawn) here?
A: -10.8%

Q: For `CC(C)(C)c1csc(C2CCCCN2C(=O)CCn2cncn2)n1` (stereo not drawn), which cytotoxicity at 70.5 h is on record?
A: -5.87%

Q: With `CC(O)CN1CCC(CN(C)CC(=O)NC(C)C)CC1` (stereo not drawn) as the compound, how does the cytotoxicity at 70.5 h read?
A: -1.64%

Q: With `CC(=O)NCCNC(=O)c1cc(C)ccc1SC1CCCC1` as the compound, how does the cytotoxicity at 70.5 h read?
A: -11.6%

Q: With `O=C(Cc1csc(-c2ccco2)n1)N1CCN(c2cnccn2)CC1` as the compound, how does the cytotoxicity at 70.5 h read?
A: 1.22%

Q: Which cytotoxicity at 70.5 h does the source give for `O[C@@H]1CCN(c2ccc3c(Cl)ccnc3c2F)C1` here?
A: -8.44%

Q: With `CCc1nc(CN2CCCC(NCc3nnc(C4CC4)o3)C2)no1` (stereo not drawn) as the compound, how does the cytotoxicity at 70.5 h read?
A: 0.376%

Q: Which cytotoxicity at 70.5 h does the source give for `CN(C)c1nccc(C2CN(c3cnccn3)CCO2)n1` (stereo not drawn) here?
A: 13.3%

Q: Which cytotoxicity at 70.5 h does the source give for `O=C1CCCc2[nH]c(=O)c(C(=O)N(Cc3ccsc3)C3CC3)cc21` here?
A: -1.04%

Q: With `CN1CCOC(CNC(=O)CCc2cc(F)ccc2F)C1` (stereo not drawn) as the compound, how does the cytotoxicity at 70.5 h read?
A: -4.57%

Q: Which cytotoxicity at 70.5 h does the source give for `CCOc1ncnc2c1CCN(S(=O)(=O)CC)CC2` here?
A: 14.3%

Q: For `CCCc1cc(N2CCCCC2Cn2cc(C)cn2)n2ncnc2n1` (stereo not drawn), which cytotoxicity at 70.5 h is on record?
A: -6.83%

Q: Which cytotoxicity at 70.5 h does the source give for `COCCNC(=O)c1nnc2ccc(N3CCOCC3)cc2n1` here?
A: 23.1%

Q: For `CCn1ncc2c1C(COC)N(C(=O)Cc1cccs1)CC2` (stereo not drawn), which cytotoxicity at 70.5 h is on record?
A: -0.61%

Q: With `COc1ccccc1N1CCC(CNS(=O)(=O)c2cccc(C#N)c2)C1` (stereo not drawn) as the compound, how does the cytotoxicity at 70.5 h read?
A: 22.7%

Q: Which cytotoxicity at 70.5 h does the source give for `CCOc1ccc2ccccc2c1CNCC1CCS(=O)(=O)C1` (stereo not drawn) here?
A: -3.67%

Q: With `Cn1c2c(c(=O)n1C)CN(S(=O)(=O)c1cccs1)CCC2` as the compound, how does the cytotoxicity at 70.5 h read?
A: -5.01%

Q: Which cytotoxicity at 70.5 h does the source give for `O=C(NCCc1nnc2n1CCC2)NCC1(c2ccc(F)cc2)CC1` here?
A: -7.03%

Q: With `CNC(=O)COC1COC2(CCN(c3ccc(C)nn3)CC2)C1` (stereo not drawn) as the compound, how does the cytotoxicity at 70.5 h read?
A: 0.115%

Q: With `CS(=O)(=O)N1CCC(c2nccn2Cc2ccccn2)CC1` as the compound, how does the cytotoxicity at 70.5 h read?
A: -5.19%

Q: For `Cc1ccc2nc(C(=O)N3CCC(CCn4cccn4)CC3)cn2c1`, which cytotoxicity at 70.5 h is on record?
A: 16%

Q: For `O=C(c1ccncc1F)N1CCN(CC2CC2)c2ncccc2C1`, which cytotoxicity at 70.5 h is on record?
A: 24.5%

Q: For `CC(O)(CNc1ccc(Cl)c(C#N)n1)c1ccsc1` (stereo not drawn), which cytotoxicity at 70.5 h is on record?
A: 10.6%

Q: With `CC1(C)CN(C(=O)c2cnc(-c3ccccn3)nc2)CC[C@]1(C)O` as the compound, how does the cytotoxicity at 70.5 h read?
A: 0.152%

Q: For `Cc1cnccc1Cn1ccnc1C1CCOC1` (stereo not drawn), which cytotoxicity at 70.5 h is on record?
A: -7.66%

Q: For `CCc1c(C(=O)NCC2CCS(=O)(=O)C2)cnn1-c1ccccc1` (stereo not drawn), which cytotoxicity at 70.5 h is on record?
A: -4.41%

Q: Which cytotoxicity at 70.5 h does the source give for `CN(C)C(=O)CN1CCO[C@H]2CN(c3ccccn3)C[C@H]21` here?
A: -3.6%

Q: With `c1cnn(CC2CCCCN2Cc2noc(C3CC3)n2)c1` (stereo not drawn) as the compound, how does the cytotoxicity at 70.5 h read?
A: -6.47%

Q: Which cytotoxicity at 70.5 h does the source give for `CC(NC(=O)NCCC(=O)OC(C)(C)C)c1nncn1C` (stereo not drawn) here?
A: -0.412%

Q: Which cytotoxicity at 70.5 h does the source give for `CC(C)CN1CCS(=O)(=O)[C@@H]2CCN(S(=O)(=O)c3ccccc3)CC[C@@H]21` here?
A: -1.95%

Q: With `COCC(=O)Nc1ccc2c(c1)CN(C(=O)c1ccco1)CC2` as the compound, how does the cytotoxicity at 70.5 h read?
A: 23.8%

Q: With `CCNC(=O)N1CCCC(c2noc(CC)n2)C1` (stereo not drawn) as the compound, how does the cytotoxicity at 70.5 h read?
A: -3.02%

Q: With `Cn1ncc2c(NCC(=O)N3CCNCC3)nc(C(C)(C)C)nc21` as the compound, how does the cytotoxicity at 70.5 h read?
A: -1.24%

Q: For `CCc1nc(C2CCCN(C(=O)c3ccc(F)cc3)C2)no1` (stereo not drawn), which cytotoxicity at 70.5 h is on record?
A: -0.043%

Q: With `Cc1cc(-n2cncn2)n2ncnc2n1` as the compound, how does the cytotoxicity at 70.5 h read?
A: -2.11%

Q: Which cytotoxicity at 70.5 h does the source give for `Cc1cc(CN(Cc2ccccc2)C2CC2)on1` here?
A: -0.663%

Q: Which cytotoxicity at 70.5 h does the source give for `CCc1nc(C2CCCN2CC(=O)NCCc2ccsc2)no1` (stereo not drawn) here?
A: 0.0583%

Q: With `O=C(Cc1csc(-c2ccsc2)n1)N1CCN(c2cnccn2)CC1` as the compound, how does the cytotoxicity at 70.5 h read?
A: -10.1%

Q: With `Cc1ccc(OCC(C)NS(=O)(=O)Cc2ccon2)cc1` (stereo not drawn) as the compound, how does the cytotoxicity at 70.5 h read?
A: -9.91%

Q: With `OC[C@H]1CN2CCN(c3ccccn3)C[C@@H]2[C@@H]1c1ccccc1` as the compound, how does the cytotoxicity at 70.5 h read?
A: -5.54%

Q: With `Cc1n[nH]c2c1C(c1ccncc1)SCC(=O)N2` (stereo not drawn) as the compound, how does the cytotoxicity at 70.5 h read?
A: 19.3%

Q: With `Cc1noc(CNc2ccccc2CC(=O)N(C)C)n1` as the compound, how does the cytotoxicity at 70.5 h read?
A: -4.56%

Q: For `NC(=O)Cn1cc(NC(=O)N2CCCC(O)C2)cn1` (stereo not drawn), which cytotoxicity at 70.5 h is on record?
A: -4.87%

Q: With `CC(C)c1nc(CN2CCC(c3ccnn3CCO)CC2)no1` as the compound, how does the cytotoxicity at 70.5 h read?
A: 19.5%

Q: With `CCn1nc(C)c2c1cnn2CCNS(=O)(=O)CC` as the compound, how does the cytotoxicity at 70.5 h read?
A: 3.21%

Q: Which cytotoxicity at 70.5 h does the source give for `CNc1cc(C2CCCN2Cc2ccccc2OCC(=O)O)ccn1` (stereo not drawn) here?
A: -5.11%

Q: Which cytotoxicity at 70.5 h does the source give for `COCc1nc2cc(NCc3csc(C)n3)ccc2o1` here?
A: 3.55%

Q: Which cytotoxicity at 70.5 h does the source give for `Cc1nn(CC(=O)O)c(C)c1NS(=O)(=O)c1cccc2ccccc12` here?
A: -6.18%

Q: For `CN(Cc1cnn(C)c1)C(=O)NC1CCN(Cc2ccccn2)CC1`, which cytotoxicity at 70.5 h is on record?
A: -11.3%
